Measurements as given in EPA's CvTdb concentration-time database.

Key:
[1] = system: Mouse; test: concentration in plasma after dosing; conditions: dosed: 2,4-Dichlorophenoxyacetic acid, 1.0 mg/kg, iv, Male, B6C3F1
[2] = system: Mouse; test: concentration in plasma after dosing; conditions: dosed: 2,4-Dichlorophenoxyacetic acid, 5.2 mg/kg, oral, Male, B6C3F1
[3] = system: Mouse; test: concentration in plasma after dosing; conditions: B6C3F1
[4] = system: Mouse; test: concentration in plasma after dosing; conditions: 2.5 min; dosed: 2-Hydroxy-4-methoxybenzophenone; 250 mg/kg; oral; Male; B6C3F1
[5] = system: Rat; test: concentration in plasma after dosing; conditions: 0.25 h; dosed: 2-Hydroxy-4-methoxybenzophenone; 500 mg/kg; oral; Male; F344
[6] = system: Rat; test: concentration in plasma after dosing; conditions: 0.25 h; dosed: 2-Hydroxy-4-methoxybenzophenone; 500 mg/kg; oral; Male; F344; remark: listed apart in the source
[7] = system: Mouse; test: concentration in plasma after dosing; conditions: 2.5 min; dosed: 2-Hydroxy-4-methoxybenzophenone; 250 mg/kg; oral; Male; B6C3F1; remark: listed apart in the source
[8] = system: Rat; test: concentration in plasma after dosing; conditions: dosed: Methyleugenol, 37 mg/kg, oral, Male, F344/N
[9] = system: Rat; test: concentration in plasma after dosing; conditions: dosed: Methyleugenol, 37 mg/kg, iv, Female, F344
[10] = system: Rat; test: concentration in liver after dosing; conditions: 1200 h; dosed: Perfluorohexane-1-sulphonic acid – potassium salt; 16 mg/kg; oral; Male; Harlan Sprague Dawley
[11] = system: Rat; test: concentration in liver after dosing; conditions: 24 h; dosed: Perfluorohexane-1-sulphonic acid – potassium salt; 16 mg/kg; oral; Female; F344
[12] = system: Rat; test: concentration in kidney after dosing; conditions: 24 h; dosed: Perfluorohexane-1-sulphonic acid – potassium salt; 16 mg/kg; oral; Female; F344
[13] = system: Rat; test: concentration in kidney after dosing; conditions: 12 h; dosed: Perfluorohexane-1-sulphonic acid – potassium salt; 16 mg/kg; oral; Female; F344
[14] = system: Rat; test: concentration in liver after dosing; conditions: 24 h; dosed: Perfluorohexane-1-sulphonic acid – potassium salt; 16 mg/kg; oral; Female; F344; remark: listed apart in the source
[15] = system: Rat; test: concentration in liver after dosing; conditions: 192 h; dosed: Perfluorohexane-1-sulphonic acid – potassium salt; 16 mg/kg; oral; Female; Harlan Sprague Dawley
[16] = system: Rat; test: concentration in plasma after dosing; conditions: 1.5 h; dosed: Primidone; 130 mg/kg; oral; Female; F344
[17] = system: Rat; test: concentration in plasma after dosing; conditions: 0.25 h; dosed: Primidone; 80 mg/kg; oral; Female; F344
[18] = system: Rat; test: concentration in plasma after dosing; conditions: 0.25 h; dosed: Primidone; 30 mg/kg; oral; Female; F344
[19] = system: Rat; test: concentration in plasma after dosing; conditions: 3 h; dosed: Primidone; 30 mg/kg; oral; Female; F344
[20] = system: Rat; test: concentration in plasma after dosing; conditions: 0.5 h; dosed: Primidone; 80 mg/kg; oral; Female; Harlan Sprague-Dawley
[21] = system: Rat; test: concentration in plasma after dosing; conditions: 3 h; dosed: Primidone; 130 mg/kg; oral; Male; Harlan Sprague Dawley
[22] = system: Rat; test: concentration in plasma after dosing; conditions: dosed: Pyridine, 5 mg/kg, iv, Male, F344
[23] = system: Rat; test: concentration in plasma after dosing; conditions: 0.5 h; dosed: alpha-Thujone; 25 mg/kg; oral; Male; Harlan Sprague Dawley
[24] = system: Rat; test: concentration in plasma after dosing; conditions: 2 min; dosed: alpha-Thujone; 25 mg/kg; oral; Male; Harlan Sprague Dawley
[25] = system: Rat; test: concentration in plasma after dosing; conditions: 5 min; dosed: alpha-Thujone; 25 mg/kg; oral; Male; Harlan Sprague Dawley
[26] = system: Rat; test: concentration in plasma after dosing; conditions: 12 h; dosed: alpha-Thujone; 25 mg/kg; oral; Male; Harlan Sprague Dawley
[27] = system: Rat; test: concentration in plasma after dosing; conditions: 0.5 h; dosed: alpha-Thujone; 50 mg/kg; oral; Female; Harlan Sprague Dawley
[28] = system: Rat; test: concentration in brain after dosing; conditions: 10 min; dosed: alpha-Thujone; 25 mg/kg; oral; Male; Harlan Sprague Dawley
[29] = system: Rat; test: concentration in brain after dosing; conditions: 1.5 h; dosed: alpha-Thujone; 25 mg/kg; oral; Male; Harlan Sprague Dawley
[30] = system: Rat; test: concentration in brain after dosing; conditions: 2 min; dosed: alpha-Thujone; 25 mg/kg; oral; Male; Harlan Sprague Dawley

O=C(O)COc1ccc(Cl)cc1Cl [2,4-Dichlorophenoxyacetic acid]
concentration in plasma [ng/mL]
Conditions | [1] | [2]
0.25 h | 7400 | 12900
0.5 h | 5390 | 21100
1 h | 5370 | –
2 h | 1290 | 18600
2.5 h | 211 | –
2.5 min | 7760 | –
3 h | 248 | 8140
4 h | – | 8940
5 min | 6530 | 18900
6 h | – | 2910
10 h | – | 212
10 min | 9300 | –

concentration in plasma [ng/mL], [3], dosed: 2,4-Dichlorophenoxyacetic acid, Male
Conditions | 1.0 mg/kg | 2.0 mg/kg | 5.2 mg/kg
0.25 h, iv | 6980 | – | –
0.25 h, oral | 1210 | 5300 | 16000
0.5 h, oral | 3030 | 3480 | 16800
1 h, iv | 2730 | – | –
2 h, oral | 486 | 2900 | 16000
2.5 h, iv | 951 | – | –
2.5 min, iv | 7580 | – | –
2.5 min, oral | 2070 | 3200 | –
3 h, oral | 470 | 1950 | 12800
4 h, iv | 1200 | – | –
4 h, oral | 164 | – | 6840
5 min, iv | 7190 | – | –
5 min, oral | 3130 | 5970 | 11300
6 h, iv | 235 | – | –
6 h, oral | 123 | 390 | 1250
8 h, oral | 120 | – | –
10 h, oral | – | – | 459
10 min, iv | 7290 | – | –
10 min, oral | 1360 | 5500 | –

O=C(c1ccccc1)c1ccc(O)cc1O [2,4-Dihydroxybenzophenone]
concentration in plasma [ng/mL], [3], dosed: 2-Hydroxy-4-methoxybenzophenone
Conditions | 0.25 h | 2 h | 2.5 min | 3 h | 10 min
50 mg/kg, iv, Female | 800 | 44.6 | – | 63.1 | 1700
50 mg/kg, iv, Male | 1440 | 230 | – | 70.5 | 3710
100 mg/kg, oral, Female | 721 | 61.9 | 44 | 50.2 | 383
100 mg/kg, oral, Male | 171 | 320 | 120 | 109 | 195
250 mg/kg, oral, Female | 1340 | 185 | 71.2 | 120 | 1840
250 mg/kg, oral, Male | 988 | 338 | 115 | 265 | 542
500 mg/kg, oral, Female | 3280 | 309 | – | – | 2800
500 mg/kg, oral, Male | 1510 | 282 | – | – | 1110

Conditions | concentration in plasma [ng/mL]
[4] | 92.3
[5] | 103
[6] | 713
[7] | 149

C=CCc1ccc(OC)c(OC)c1 [Methyleugenol]
concentration in plasma [ng/mL]
Conditions | 0.5 h | 2 min | 4 h | 6 h
[8] | 44.9 | – | 12.7 | –
[9] | – | 43100 | – | 68

O=S(=O)([O-])C(F)(F)C(F)(F)C(F)(F)C(F)(F)C(F)(F)C(F)(F)F.[K+] [Perfluorohexane-1-sulphonic acid – potassium salt]
Conditions | concentration in kidney [ng/g] | concentration in liver [ng/g]
[10] | – | 15500
[11] | – | 78000
[12] | 28100 | –
[13] | 35900 | –
[14] | – | 53400
[15] | – | 1580

CCC1(c2ccccc2)C(=O)NCNC1=O [Primidone]
Conditions | concentration in plasma [ng/mL]
[16] | 68100
[17] | 25300
[18] | 15100
[19] | 19900
[20] | 22900
[21] | 108000

c1ccncc1 [Pyridine]
[22]
Conditions | concentration in plasma [ng/mL]
2 h | 2780
14 h | 89

CC(C)[C@]12CC(=O)[C@H](C)[C@H]1C2 [alpha-Thujone]
Conditions | concentration in brain [ng/g] | concentration in plasma [ng/mL]
[23] | – | 337
[24] | – | 17.8
[25] | – | 1170
[26] | – | 20.5
[27] | – | 433
[28] | 2000 | –
[29] | 525 | –
[30] | 11.2 | –
